This note sets out measurements from ChEMBL document CHEMBL4507318, “Data for DCP probe BAY-985” (2021).

Test [1] deals with Receptor-interacting serine/threonine-protein kinase 4 (Homo sapiens) (UniProt P57078).
The target in test [2] is Misshapen-like kinase 1 (Homo sapiens) (UniProt Q8N4C8).
The target of test [3] is Mitogen-activated protein kinase 9 (Homo sapiens) (UniProt P45984).
For test [4], the target named is 5-hydroxytryptamine receptor 2A (Homo sapiens) (UniProt P28223). The settings on record: Compound concentration 10.0 uM.
Test [5] has as its target Eukaryotic translation initiation factor 2-alpha kinase 1 (Homo sapiens) (UniProt Q9BQI3).
In test [6] the target is BMP-2-inducible protein kinase (Homo sapiens) (UniProt Q9NSY1).
BMP-2-inducible protein kinase (Homo sapiens), sequence (Q9NSY1 whole entry, looked up): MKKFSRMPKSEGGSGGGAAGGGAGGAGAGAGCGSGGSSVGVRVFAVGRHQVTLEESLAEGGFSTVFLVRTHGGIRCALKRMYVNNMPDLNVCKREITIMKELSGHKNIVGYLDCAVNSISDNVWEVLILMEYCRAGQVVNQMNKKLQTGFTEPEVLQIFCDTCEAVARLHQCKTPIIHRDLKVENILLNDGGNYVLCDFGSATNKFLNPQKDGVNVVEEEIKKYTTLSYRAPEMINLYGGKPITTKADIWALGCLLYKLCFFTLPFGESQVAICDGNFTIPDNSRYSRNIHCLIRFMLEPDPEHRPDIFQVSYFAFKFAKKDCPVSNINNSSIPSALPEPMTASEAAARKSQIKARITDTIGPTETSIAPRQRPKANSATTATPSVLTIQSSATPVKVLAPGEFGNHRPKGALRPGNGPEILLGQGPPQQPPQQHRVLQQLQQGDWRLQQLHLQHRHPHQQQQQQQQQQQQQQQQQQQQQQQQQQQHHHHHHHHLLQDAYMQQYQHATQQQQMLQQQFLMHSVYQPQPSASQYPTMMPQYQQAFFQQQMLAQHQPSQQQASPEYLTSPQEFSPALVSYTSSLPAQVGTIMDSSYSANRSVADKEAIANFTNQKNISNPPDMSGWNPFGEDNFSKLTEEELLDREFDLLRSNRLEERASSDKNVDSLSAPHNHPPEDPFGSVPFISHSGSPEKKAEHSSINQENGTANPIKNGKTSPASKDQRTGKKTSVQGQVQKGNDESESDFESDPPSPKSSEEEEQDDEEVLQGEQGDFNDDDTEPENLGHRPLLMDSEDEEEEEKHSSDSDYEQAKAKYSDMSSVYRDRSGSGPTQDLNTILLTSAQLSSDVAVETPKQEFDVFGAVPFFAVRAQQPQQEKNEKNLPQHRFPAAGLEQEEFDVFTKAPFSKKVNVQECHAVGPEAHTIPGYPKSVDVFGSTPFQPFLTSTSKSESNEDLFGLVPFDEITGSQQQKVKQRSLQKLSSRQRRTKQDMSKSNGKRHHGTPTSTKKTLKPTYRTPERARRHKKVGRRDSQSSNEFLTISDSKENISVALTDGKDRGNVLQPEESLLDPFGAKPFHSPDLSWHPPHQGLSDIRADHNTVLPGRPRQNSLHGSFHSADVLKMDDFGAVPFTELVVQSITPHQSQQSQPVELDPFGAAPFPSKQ
For test [7], the target named is Interleukin-1 receptor-associated kinase 4 (Homo sapiens) (UniProt Q9NWZ3).
The test system of test [8] is Epidermal growth factor receptor (Homo sapiens), P00533 [G719S].
In test [9] the target is Ribosomal protein S6 kinase alpha-5 (Homo sapiens) (UniProt O75582).
The target in test [10] is Serine/threonine-protein kinase PAK 2 (Homo sapiens) (UniProt Q13177).
The subject of test [11] is Phosphatidylinositol 4,5-bisphosphate 3-kinase catalytic subunit alpha isoform (Homo sapiens), P42336 [E545A].
The target in test [12] is Serine/threonine-protein kinase Nek2 (Homo sapiens) (UniProt P51955).
The target in test [13] is Alpha-1B adrenergic receptor (Homo sapiens) (UniProt P35368). The settings on record: Compound concentration 10.0 uM.
Alpha-1B adrenergic receptor (Homo sapiens), sequence (P35368 whole entry): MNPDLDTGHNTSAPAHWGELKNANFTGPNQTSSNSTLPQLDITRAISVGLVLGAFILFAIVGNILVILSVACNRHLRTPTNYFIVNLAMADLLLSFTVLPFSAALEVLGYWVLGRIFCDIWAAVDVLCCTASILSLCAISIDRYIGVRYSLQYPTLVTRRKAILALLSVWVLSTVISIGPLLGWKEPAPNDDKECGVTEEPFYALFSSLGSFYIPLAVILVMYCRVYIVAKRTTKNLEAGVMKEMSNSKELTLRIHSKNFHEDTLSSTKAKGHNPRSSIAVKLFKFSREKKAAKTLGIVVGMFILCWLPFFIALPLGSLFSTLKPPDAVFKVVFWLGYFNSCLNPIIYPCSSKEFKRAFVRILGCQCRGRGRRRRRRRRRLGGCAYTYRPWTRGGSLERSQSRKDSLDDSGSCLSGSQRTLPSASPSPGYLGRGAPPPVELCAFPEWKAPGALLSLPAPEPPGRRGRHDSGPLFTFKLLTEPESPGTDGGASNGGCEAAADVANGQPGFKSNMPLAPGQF
Test [14] concerns the target Serine/threonine-protein kinase Chk1 (Homo sapiens) (UniProt O14757).
The target in test [15] is Wee1-like protein kinase 2 (Homo sapiens) (UniProt P0C1S8).
Wee1-like protein kinase 2 (Homo sapiens), sequence (P0C1S8 whole entry, looked up): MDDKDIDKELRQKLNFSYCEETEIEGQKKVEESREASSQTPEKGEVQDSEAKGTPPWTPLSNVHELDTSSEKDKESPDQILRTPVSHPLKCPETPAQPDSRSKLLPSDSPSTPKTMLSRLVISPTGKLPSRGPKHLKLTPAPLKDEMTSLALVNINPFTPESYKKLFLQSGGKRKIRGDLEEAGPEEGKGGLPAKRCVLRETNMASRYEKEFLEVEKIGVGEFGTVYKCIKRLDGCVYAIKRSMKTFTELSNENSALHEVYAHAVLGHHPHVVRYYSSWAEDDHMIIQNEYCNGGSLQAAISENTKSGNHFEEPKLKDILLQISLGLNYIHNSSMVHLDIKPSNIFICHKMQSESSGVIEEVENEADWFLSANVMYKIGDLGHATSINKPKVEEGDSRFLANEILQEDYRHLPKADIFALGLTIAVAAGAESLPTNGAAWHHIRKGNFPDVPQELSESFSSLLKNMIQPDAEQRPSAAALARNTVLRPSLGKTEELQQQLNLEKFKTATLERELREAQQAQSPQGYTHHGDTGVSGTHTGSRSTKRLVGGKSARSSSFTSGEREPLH
For test [16], the target named is 5-hydroxytryptamine receptor 2B (Homo sapiens, UniProt P41595). Briefly: GPCRScan assay: inhibition of 5-HT2B. More on the design: radioligand conc. used [nm] 1.0 – 2.0, parental cells stable HEK.
5-hydroxytryptamine receptor 2B, sequence (P41595 whole entry): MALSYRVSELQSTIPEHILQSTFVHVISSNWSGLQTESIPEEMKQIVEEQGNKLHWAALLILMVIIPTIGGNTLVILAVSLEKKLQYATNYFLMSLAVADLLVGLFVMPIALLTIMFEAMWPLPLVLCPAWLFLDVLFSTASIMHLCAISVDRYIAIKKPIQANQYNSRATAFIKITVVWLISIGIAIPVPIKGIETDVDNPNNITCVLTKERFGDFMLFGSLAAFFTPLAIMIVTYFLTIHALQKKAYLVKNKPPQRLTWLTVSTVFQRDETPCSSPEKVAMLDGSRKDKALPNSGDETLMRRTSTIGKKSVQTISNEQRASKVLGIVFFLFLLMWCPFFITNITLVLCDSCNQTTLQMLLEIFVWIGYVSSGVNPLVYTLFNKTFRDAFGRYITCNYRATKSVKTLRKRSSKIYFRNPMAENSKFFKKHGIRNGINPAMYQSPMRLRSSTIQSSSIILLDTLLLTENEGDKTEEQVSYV
The target in test [17] is Mitogen-activated protein kinase kinase kinase 19 (Homo sapiens, UniProt Q56UN5). As to the kind of experiment: NanoBRET with MAP3K19. For orientation: Bioluminescence resonance energy transfer reports proximity on the nanometre scale.
The target in test [18] is GABA-A receptor; anion channel (Rattus norvegicus) (UniProt O09028+P15431+P18506+P18508+P19969+P20236+P23574+P23576+P28471+P28473+P30191+P62813+P63079+P63138+Q91ZM7+Q9ES14). The settings on record: Compound concentration 10.0 uM.
The target of test [19] is T1, Serine/threonine-protein kinase TBK1 (Homo sapiens, UniProt Q9UHD2). Briefly: cell-based.
Test [20] has as its target Serine/threonine-protein kinase 17A (Homo sapiens, UniProt Q9UEE5). Briefly: NanoBRET with STK17A.
Test [21] deals with Sodium-dependent dopamine transporter (Homo sapiens) (UniProt Q01959). The note with it: Compound concentration 10.0 uM.
In test [22] the target is Dual specificity mitogen-activated protein kinase kinase 5 (Homo sapiens, UniProt Q13163). As to the kind of experiment: NanoBRET with MAP2K5.
In test [23] the target is Inhibitor of nuclear factor kappa-B kinase subunit epsilon (Homo sapiens, UniProt Q14164). Briefly: cell-based.
Test [24] deals with Receptor-type tyrosine-protein kinase FLT3 (Homo sapiens, UniProt P36888). As to the kind of experiment: NanoBRET with FTL3.
Test [25] concerns the target T1, Serine/threonine-protein kinase TBK1. Briefly: Biochemical assay (high ATP) with TBK1.
The mark [26] stands for this setting: Compound concentration 1000.0 nM.
The mark [27] stands for this setting: Compound concentration 100.0 nM.

Activity calls are given as the source filed them. The calls are words filed in the database; no cut-off is given here.

Phosphatidylinositol 4,5-bisphosphate 3-kinase catalytic subunit alpha isoform (Homo sapiens), P42336 [E545A], sequence (P42336 whole entry E545A, canonical isoform): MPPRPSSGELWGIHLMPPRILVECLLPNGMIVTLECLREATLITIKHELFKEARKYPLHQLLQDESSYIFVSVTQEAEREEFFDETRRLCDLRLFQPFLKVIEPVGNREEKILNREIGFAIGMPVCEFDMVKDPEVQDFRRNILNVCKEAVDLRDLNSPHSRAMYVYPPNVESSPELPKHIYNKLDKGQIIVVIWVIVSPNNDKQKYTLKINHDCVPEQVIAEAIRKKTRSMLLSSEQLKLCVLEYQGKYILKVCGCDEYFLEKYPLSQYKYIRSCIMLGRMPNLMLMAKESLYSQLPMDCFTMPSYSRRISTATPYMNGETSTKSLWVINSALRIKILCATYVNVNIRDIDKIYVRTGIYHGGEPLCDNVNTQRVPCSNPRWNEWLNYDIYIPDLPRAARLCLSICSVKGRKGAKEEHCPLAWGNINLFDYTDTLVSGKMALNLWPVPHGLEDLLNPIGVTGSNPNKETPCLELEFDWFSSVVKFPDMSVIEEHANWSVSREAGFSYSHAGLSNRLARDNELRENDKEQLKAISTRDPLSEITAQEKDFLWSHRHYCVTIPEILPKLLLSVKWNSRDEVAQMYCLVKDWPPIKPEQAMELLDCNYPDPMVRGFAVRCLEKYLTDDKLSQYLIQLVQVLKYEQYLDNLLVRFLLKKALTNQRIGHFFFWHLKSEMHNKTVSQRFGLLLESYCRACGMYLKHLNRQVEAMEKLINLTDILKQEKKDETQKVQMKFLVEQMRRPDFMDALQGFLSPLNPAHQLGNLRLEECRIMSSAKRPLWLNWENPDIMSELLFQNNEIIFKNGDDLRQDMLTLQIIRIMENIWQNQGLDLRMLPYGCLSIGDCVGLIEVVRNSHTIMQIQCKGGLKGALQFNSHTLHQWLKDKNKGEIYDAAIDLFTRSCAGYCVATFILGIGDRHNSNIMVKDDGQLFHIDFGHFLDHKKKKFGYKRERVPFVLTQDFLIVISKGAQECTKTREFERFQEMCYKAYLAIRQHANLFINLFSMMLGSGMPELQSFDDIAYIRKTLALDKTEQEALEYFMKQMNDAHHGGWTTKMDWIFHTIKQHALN
Mitogen-activated protein kinase 9 (Homo sapiens), sequence (P45984 whole entry, looked up): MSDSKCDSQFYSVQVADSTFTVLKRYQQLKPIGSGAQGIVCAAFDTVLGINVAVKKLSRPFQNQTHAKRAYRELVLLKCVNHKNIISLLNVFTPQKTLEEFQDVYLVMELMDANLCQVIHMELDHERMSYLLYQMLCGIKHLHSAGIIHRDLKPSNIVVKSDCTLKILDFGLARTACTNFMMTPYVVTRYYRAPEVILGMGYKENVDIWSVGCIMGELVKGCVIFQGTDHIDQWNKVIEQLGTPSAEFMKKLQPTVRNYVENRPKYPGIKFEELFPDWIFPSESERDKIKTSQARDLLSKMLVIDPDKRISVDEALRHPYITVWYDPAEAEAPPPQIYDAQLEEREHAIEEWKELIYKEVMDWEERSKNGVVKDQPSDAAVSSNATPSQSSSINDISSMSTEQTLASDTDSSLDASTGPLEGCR
Receptor-interacting serine/threonine-protein kinase 4 (Homo sapiens), sequence (P57078 whole entry): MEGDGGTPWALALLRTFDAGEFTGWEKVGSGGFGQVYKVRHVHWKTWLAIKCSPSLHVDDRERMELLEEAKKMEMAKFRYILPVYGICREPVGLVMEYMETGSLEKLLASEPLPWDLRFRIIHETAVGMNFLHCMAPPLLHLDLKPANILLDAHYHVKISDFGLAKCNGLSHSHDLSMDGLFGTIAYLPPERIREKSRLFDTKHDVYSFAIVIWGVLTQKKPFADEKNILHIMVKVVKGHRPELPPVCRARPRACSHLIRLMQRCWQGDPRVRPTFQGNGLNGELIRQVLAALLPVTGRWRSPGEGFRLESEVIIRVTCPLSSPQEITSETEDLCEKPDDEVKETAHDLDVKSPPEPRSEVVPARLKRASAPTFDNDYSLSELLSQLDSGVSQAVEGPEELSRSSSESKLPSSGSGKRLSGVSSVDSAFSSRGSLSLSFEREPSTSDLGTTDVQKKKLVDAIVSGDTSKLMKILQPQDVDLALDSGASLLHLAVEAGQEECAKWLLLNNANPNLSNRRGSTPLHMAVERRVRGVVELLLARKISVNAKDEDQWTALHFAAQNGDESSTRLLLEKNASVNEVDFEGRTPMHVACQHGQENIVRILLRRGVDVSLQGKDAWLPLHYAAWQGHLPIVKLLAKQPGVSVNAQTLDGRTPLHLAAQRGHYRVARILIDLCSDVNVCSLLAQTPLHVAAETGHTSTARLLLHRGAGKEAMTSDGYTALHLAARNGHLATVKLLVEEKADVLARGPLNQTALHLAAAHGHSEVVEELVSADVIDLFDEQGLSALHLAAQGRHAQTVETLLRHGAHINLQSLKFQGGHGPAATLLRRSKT

Turning to `CN(C)c1ncnc(-c2ccc3nc(Nc4cc(CN5CCN(C(=O)CC(F)(F)F)CC5)ccn4)[nH]c3c2)c1Cl` [BAY-440], the residual activity in test [1] (setting [26]) was 100%; in test [2] (setting [26]), 57%; in test [3] (setting [26]), 47%; in test [5] (setting [26]) it was 54%; in test [6] (setting [26]), 100%; in test [7] (setting [26]), 39%. The residual activity in test [8] (setting [26]) is 79%; in [9] (setting [26]) it was 85%; in test [10] (setting [26]) it was 100%; in [11] (setting [26]) it was 100%; in test [12] (setting [26]) it was 86%; in test [14] (setting [26]), 97%. For the same molecule, in test [15] (setting [26]), the residual activity was 100%. The inhibition (in general, the change of the read-out against control, counted positive when it falls) in test [4] was -4.19%; in test [13], 4.51%.
Take `C[C@H](c1ccnc(Nc2nc3ccc(-c4cc(N(C)C)ncn4)cc3[nH]2)c1)N1CCN(C(=O)CC(F)(F)F)CC1` [BAY-985]: the residual activity was 100% in test [1] (setting [27]); 94% in test [2] (setting [27]); 89% in [3] (setting [27]); 100% in [5] (setting [27]); 100% in test [6] (setting [27]); 100% in test [7] (setting [27]). Moreover, the residual activity was 91% in test [8] (setting [27]); 61% in [9] (setting [27]); 68% in test [10] (setting [27]); 100% in [11] (setting [27]); 100% in [12] (setting [27]); 87% in [14] (setting [27]). Besides, the residual activity in test [15] (setting [27]) was 98%. Also, the values for the Ki in test [16] (read-out: Ki) and in test [16] (read-out: pKi (converted)) were 1310 nM and 1290 nM, respectively. Besides, the IC50 (usually the concentration needed to halve the response being measured) is > 20000 nM (not active) in test [17]; 312 nM (active) in [19]; > 20000 nM (not active) in test [20]; > 20000 nM (not active) in [22]; 1730 nM (active) in test [23]; > 20000 nM (not active) in test [24]. In addition, the IC50 in [25] is 18 nM (active). Further, the inhibition in [18] was 23%; in [21] it was 30.5%; in [13] it was 2.95%.
